The nature of series [1]: molar enthalpy of vaporization or sublimation. The note with it: 298.15 K; Liquid; Static calorimetry.
Series [2] in a line: molar heat capacity at constant pressure. Particulars: 300.6 K; 101.33 kPa; Liquid; Drop calorimetry.

± gives the expanded uncertainty stated by the source.

As for `CCCCn1ccnc1` [1-butylimidazole], the molar enthalpy in series [1] was found to be 15.3 ± 0.153 kcal/mol.

Regarding `CCn1ccnc1` [1-ethyl-1H-imidazole], the molar enthalpy in series [1] is 13.8 ± 0.237 kcal/mol.

On to `CCCCCCCCn1ccnc1` [1-octylimidazole], for which the molar enthalpy in series [1] is 19.4 ± 0.335 kcal/mol. Further, the “molar heat capacity at constant pressure” value in series [2] is 382.21 ± 23 J/K/mol.
